From patent US9216983B2, “Dihydroorotate dehydrogenase inhibitors with selective anti-malarial activity” (BOARD OF REGENTS, UNIVERSITY OF TEXAS SYSTEM, priority 2007, dated 2015)
Where “and” joins values, the source holds several entries; their conditions need not be identical. Identical values can stand only once. Like-named read-outs stand apart in the source and are kept apart here.

Assays:
[1] = molecular target: T1, PfDHODH (Plasmodium falciparum, UniProt Q08210); test: biochemical
T1 sequence (Q08210 24-569): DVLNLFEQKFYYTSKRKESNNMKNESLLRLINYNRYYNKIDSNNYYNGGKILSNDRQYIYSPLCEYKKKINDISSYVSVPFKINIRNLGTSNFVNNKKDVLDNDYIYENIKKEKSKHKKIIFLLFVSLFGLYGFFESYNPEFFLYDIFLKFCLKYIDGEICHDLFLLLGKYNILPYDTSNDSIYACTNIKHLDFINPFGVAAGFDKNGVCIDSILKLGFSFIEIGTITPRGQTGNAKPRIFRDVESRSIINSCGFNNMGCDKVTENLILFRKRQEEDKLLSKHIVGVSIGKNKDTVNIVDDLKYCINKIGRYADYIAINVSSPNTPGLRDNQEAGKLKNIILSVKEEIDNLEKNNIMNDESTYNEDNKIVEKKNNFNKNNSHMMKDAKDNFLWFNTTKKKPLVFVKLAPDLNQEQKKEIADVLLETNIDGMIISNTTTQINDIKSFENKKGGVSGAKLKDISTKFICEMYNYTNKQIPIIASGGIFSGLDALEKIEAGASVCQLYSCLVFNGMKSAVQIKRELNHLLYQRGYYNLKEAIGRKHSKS
Method: (§1) Briefly, the assay solution contained 100 mM HEPES, pH 8.0, 150 mM NaCl, 10% glycerol, 0.1% Triton X-100, 20 micro molar COQD (coenzyme QD), 200 micro molar L-dihydroorotate, and 120 micro molar DCIP. Reactions are initiated by addition of enzyme to a final concentration in the range of about […] to about 50 nM while maintaining the temperature of a circulating water bath at 25° C.
(§2) Assay solutions were prepared as discussed above, except that DCIP is not present and the solution is depleted of oxygen by the inclusion of an oxidase/reductase system, such as, 0.1 mg/ml of glucose oxidase, 0.02 mg/ml catalase and 50 mM glucose. The data obtained is fitted to equation 1, to determine the IC50 values of the representative compounds.

[2] = molecular target: hDHODH (Homo sapiens, UniProt Q02127); test: DHODH enzyme inhibition assay, hDHODH; assay type: biochemical; details: Table 1; read-out: IC50 hDHODH
Sequence of hDHODH (Q02127 whole entry): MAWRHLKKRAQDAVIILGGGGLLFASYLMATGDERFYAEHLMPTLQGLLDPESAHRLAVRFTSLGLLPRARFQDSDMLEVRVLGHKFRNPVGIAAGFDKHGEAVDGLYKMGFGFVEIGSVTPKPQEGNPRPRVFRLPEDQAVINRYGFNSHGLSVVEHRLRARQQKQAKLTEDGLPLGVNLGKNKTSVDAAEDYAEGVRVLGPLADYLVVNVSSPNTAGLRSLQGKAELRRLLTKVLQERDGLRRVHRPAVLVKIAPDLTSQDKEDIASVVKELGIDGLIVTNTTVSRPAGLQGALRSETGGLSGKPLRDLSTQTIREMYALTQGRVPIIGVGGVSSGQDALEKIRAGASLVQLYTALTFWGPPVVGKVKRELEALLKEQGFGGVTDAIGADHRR
Method: as §1, §2

[3] = tested on: P. falciparum; test: Inhibition of cell proliferation, 3H-hypoxanthine uptake in P. falciparum-infected erythrocytes; assay type: cell-based
Excerpt: [formula] II. In Vitro Evaluation of Compound Efficacy on the Human Malaria Parasite, P. falciparum.

[4] = molecular target: PbDHODH (Plasmodium berghei, UniProt A0A509AEH5); test: DHODH enzyme inhibition assay, PbDHODH; assay type: biochemical, P. berghei; details: Table 3, average of the determinations; read-out: PbDHODH IC50 Ave (converted)
Sequence of PbDHODH (A0A509AEH5 entry or part of it): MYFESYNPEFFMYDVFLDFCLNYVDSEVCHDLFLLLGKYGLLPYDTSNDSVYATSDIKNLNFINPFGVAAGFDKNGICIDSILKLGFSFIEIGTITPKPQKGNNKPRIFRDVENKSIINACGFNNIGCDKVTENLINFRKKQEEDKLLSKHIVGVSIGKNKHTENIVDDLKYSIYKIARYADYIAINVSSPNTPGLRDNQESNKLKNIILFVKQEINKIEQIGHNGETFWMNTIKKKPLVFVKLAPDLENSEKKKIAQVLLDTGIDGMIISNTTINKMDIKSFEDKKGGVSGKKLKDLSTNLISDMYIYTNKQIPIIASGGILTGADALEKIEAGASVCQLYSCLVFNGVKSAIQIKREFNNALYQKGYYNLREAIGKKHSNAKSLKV
Method: as §1, §2

[5] = Pharmacokinetic analysis after single oral dose in mice; assay type: in vivo; details: for peak plasma concentration: FIG. 1A
Method: Pharmacokinetics of the inventive compounds was studied individually in non-fasted male Swiss outbred mice weighing 23-33 g. Mice had access to food and water ad libitum throughout the pre- and post-dose sampling period. Compounds were administered orally by gavage (0.1 mL dose volume per mouse) in a suspension of aqueous vehicle (0.5% w/v sodium caboxymethylcellulose, 0.5% v/v benzyl alcohol and 0.4% v/v Tween 80). A single blood sample was collected from each mouse via cardiac puncture at each indicated time point and transferred to heparinised tubes. Blood samples were centrifuged immediately, supernatant plasma was removed and stored at −20° C. until analysis (within 1-2 weeks). Plasma samples were assayed by LC-MS following protein precipitation with acetonitrile and the concentration of drug in plasma was determined. Pharmacokinetic parameters were calculated on the basis of plasma concentration-time profiles that used the mean plasma concentration at each sample time.

[6] = tested on: P. berghei; test: Standard P. berghei mouse model of infection; assay type: in vivo; details: mice, oral
Method: (A) The standard P. berghei mouse model for infection is utilized to evaluate the efficacy of candidate compounds, according to the invention, against parasites in vivo. See review of Fidock, et al. (2004) Nature Rev. Drug Discovery 3, 509-20. Compounds are dosed either orally or IP, with the exact regimens (e.g. frequency of dosing, drug concentrations at dosing) determined based on the pharmocokinetic profiles of the individual analogs. […] Inhibition of parasite growth is determined microscopically by staining a thin smear of blood obtained from the test animal using a Wright-Giemsa stain.

[7] = Table 1, read-out: IC50 PfDHODH
[8] = Plasmodium falciparum, Erythrocyte, Table 1, read-out: EC50 P. falciparum
[9] = Plasmodium falciparum, 3D7, Erythrocyte, Table 3, 3D7, single determinations, read-out: P. falciparum 3D7 EC50 (converted)
[10] = Table 5, read-out: PfDHODH IC50
[11] = Plasmodium falciparum, 3D7, Erythrocyte, Table 5, 3D7 cells, read-out: EC50 P. falciparum 3D7 cells
[12] = for a 2.5-fold increase in dose, 20 to 50 mg/kg

SMILES: Cc1cc(Nc2ccc(F)c(C)c2)n2ncnc2n1
- melting point: 231 °C

SMILES: Cc1cc(Nc2ccc3ccccc3c2)n2nc(C)nc2n1
- IC50 [1, 7]: 120 ± 20 nM
- IC50 [2]: > 200000 nM
- EC50 [3, 8]: < 150 nM

SMILES: Cc1cc(Nc2ccc3cc4ccccc4cc3c2)n2nc(C)nc2n1
- IC50 [1, 7]: 100 nM
- IC50 [2]: > 200000 nM
- EC50 [3, 8]: 230 ± 1.4 nM

SMILES: Cc1cc(Nc2ccc3ccccc3c2)n2nccc2n1
- IC50 ([1]; Table 3, single determinations, read-out: PfDHODH IC50): 400 ± 90 nM
- IC50 [4]: 3300 nM
- EC50 ([3]; Plasmodium falciparum, 3D7, Erythrocyte, Table 3, 3D7, average of the determinations, read-out: P. falciparum 3D7 EC50 Ave): 1000 nM
- EC50 [3, 9]: 990 ± 6 nM
- EC50 ([3]; Table 3, 3D7, single determinations, read-out: P. falciparum 3D7 EC50 (converted)): 1100 nM

SMILES: Cc1cc(Nc2ccc3ccccc3c2)n2ccnc2n1
- IC50 ([1]; PfDHODH IC50, Table 3, single determinations): 160 nM and 140 nM
- IC50 ([1]; Table 3, average of the determinations, read-out: PfDHODH IC50 Ave (converted)): 150 nM
- IC50 [4]: 2800 nM
- EC50 [3, 9]: 200 ± 1 nM

SMILES: Cc1nc2nc(C)c(C)c(Nc3ccc(C(F)(F)F)cc3)n2n1 [2,5,6-trimethyl-N-(4-(trifluoromethyl)phenyl)-[1,2,4]triazolo[1,5-a]pyrimidin-7-amine]
- IC50 [1, 10]: 3000 ± 460 nM
- EC50 [3, 11]: 3600 ± 4 nM

SMILES: Cc1cc(Nc2ccc(C(F)(F)F)cc2)n2nc(C)nc2n1 [2,5-dimethyl-N-(4-(trifluoromethyl)phenyl)-[1,2,4]triazolo[1,5-a]pyrimidin-7-amine]
- IC50 [1, 10]: 650 ± 310 nM
- EC50 [3, 11]: 930 ± 18 nM

SMILES: CC1=NC2=NC=NC2C(Nc2ccc3ccccc3c2)=N1 (stereo not shown) [2-methyl-N-(naphthalen-2-yl)-9H-purin-6-amine]
- IC50 ([1]; IC50 PfDHODH, Table 1): 440 ± 200 nM
- IC50 [2]: > 200000 nM
- EC50 ([3]; Plasmodium falciparum, Erythrocyte, read-out: EC50 P. falciparum): 1600 nM

SMILES: Cc1nc2ncnn2c(Nc2ccc(C(F)(F)F)cc2)c1C [5,6-dimethyl-N-(4-(trifluoromethyl)phenyl)-[1,2,4]triazolo[1,5-a]pyrimidin-7-amine]
- IC50 [1, 10]: 1200 ± 330 nM
- EC50 [3, 11]: 2700 ± 9 nM

SMILES: Cc1nc2nc(C)c(Cl)c(Nc3ccc(C(F)(F)F)cc3)n2n1 [6-chloro-2,5-dimethyl-N-(4-(trifluoromethyl)phenyl)-[1,2,4]triazolo[1,5-a]pyrimidin-7-amine]
- IC50 [1, 10]: 620 ± 80 nM
- EC50 [3, 11]: 7100 ± 40 nM

SMILES: Cc1nc2ncnn2c(Nc2ccc(C(F)(F)F)cc2)c1Cl [6-chloro-5-methyl-N-(4-(trifluoromethyl)phenyl)-[1,2,4]triazolo[1,5-a]pyrimidin-7-amine]
- IC50 [1, 10]: 340 ± 60 nM
- EC50 [3, 11]: 2700 ± 30 nM

SMILES: Cc1cc(Nc2ccc(OC(F)F)cc2)n2ncnc2n1 [Compound 20, (4-Difluoromethoxy-phenyl)-(5-methyl-[1,2,4]triazolo[1,5-a]pyrimidin-7-yl)-amine]
- melting point: 200 °C

SMILES: Cc1cc(Nc2ccc(C(F)(F)F)cc2)n2ncnc2n1 [drawing 22]
- EC50 ([3]; Plasmodium falciparum, 3D7, Erythrocyte, Table 2, 3D7, read-out: P. falciparum 3D7 EC50 (converted)): 350 ± 3 nM
- AUC0-last increase [5, 12]: 4.4 fold
- Cmax increase [5, 12]: 3.5 fold
- half-life ([5]; male, Swiss outbred, mouse, plasma, mice, oral, 50 mg/kg, read-out: apparent half-life): 2.95 h
- AUC0-last ([5]; mice, oral, 20 mg/kg): 2690 µM·min
- Cmax ([5]; mice, oral, 20 mg/kg): 7.9 ± 2.5 µM
- apparent half-life ([5]; mice, oral, 20 mg/kg): 1.8 h
- adverse reactions following oral administration ([5]; mice, oral, 20 mg/kg and 50 mg/kg): No adverse reactions were observed
- peak plasma concentration ([5]; mice, oral, 20 mg/kg): 11 micro molar
- AUC0-last ([5]; mice, oral, 50 mg/kg): 11757 µM·min
- Cmax ([5]; mice, oral, 50 mg/kg): 27.6 ± 5 µM
- time with plasma concentration above 1 μM ([5]; mice, oral, 50 mg/kg): 16 h
- peak plasma concentration ([5]; mice, oral, 50 mg/kg): 31 micro molar
- parasite growth ([6]; 50 mg/kg, blood smear Wright-Giemsa stain, FIG. 1B): suppresses parasite growth
- parasite growth, twice a day rather than a single dose ([6]; twice a day versus single dose): Greater suppression of parasite growth

SMILES: Cc1cc(Nc2cccc(Cl)c2)n2ncnc2n1 [drawing 23]
- melting point: 227 °C
